Experimental data reported in ChEMBL document CHEMBL5465560, “Selectivity Literature for EUbOPEN Chemogenomic Library” (2024).

Columns and labels:
[1] = target: Glycogen synthase kinase-3 beta (Homo sapiens, UniProt P49841); settings: at 10 µM
[2] = target: T1, Mitogen-activated protein kinase kinase kinase 5 (Homo sapiens) (UniProt Q99683); test: Selectivity interaction (KinomeScan (DiscoverX)) EUB0000618a MAP3K5; settings: at 10 µM
T1 sequence (whole entry): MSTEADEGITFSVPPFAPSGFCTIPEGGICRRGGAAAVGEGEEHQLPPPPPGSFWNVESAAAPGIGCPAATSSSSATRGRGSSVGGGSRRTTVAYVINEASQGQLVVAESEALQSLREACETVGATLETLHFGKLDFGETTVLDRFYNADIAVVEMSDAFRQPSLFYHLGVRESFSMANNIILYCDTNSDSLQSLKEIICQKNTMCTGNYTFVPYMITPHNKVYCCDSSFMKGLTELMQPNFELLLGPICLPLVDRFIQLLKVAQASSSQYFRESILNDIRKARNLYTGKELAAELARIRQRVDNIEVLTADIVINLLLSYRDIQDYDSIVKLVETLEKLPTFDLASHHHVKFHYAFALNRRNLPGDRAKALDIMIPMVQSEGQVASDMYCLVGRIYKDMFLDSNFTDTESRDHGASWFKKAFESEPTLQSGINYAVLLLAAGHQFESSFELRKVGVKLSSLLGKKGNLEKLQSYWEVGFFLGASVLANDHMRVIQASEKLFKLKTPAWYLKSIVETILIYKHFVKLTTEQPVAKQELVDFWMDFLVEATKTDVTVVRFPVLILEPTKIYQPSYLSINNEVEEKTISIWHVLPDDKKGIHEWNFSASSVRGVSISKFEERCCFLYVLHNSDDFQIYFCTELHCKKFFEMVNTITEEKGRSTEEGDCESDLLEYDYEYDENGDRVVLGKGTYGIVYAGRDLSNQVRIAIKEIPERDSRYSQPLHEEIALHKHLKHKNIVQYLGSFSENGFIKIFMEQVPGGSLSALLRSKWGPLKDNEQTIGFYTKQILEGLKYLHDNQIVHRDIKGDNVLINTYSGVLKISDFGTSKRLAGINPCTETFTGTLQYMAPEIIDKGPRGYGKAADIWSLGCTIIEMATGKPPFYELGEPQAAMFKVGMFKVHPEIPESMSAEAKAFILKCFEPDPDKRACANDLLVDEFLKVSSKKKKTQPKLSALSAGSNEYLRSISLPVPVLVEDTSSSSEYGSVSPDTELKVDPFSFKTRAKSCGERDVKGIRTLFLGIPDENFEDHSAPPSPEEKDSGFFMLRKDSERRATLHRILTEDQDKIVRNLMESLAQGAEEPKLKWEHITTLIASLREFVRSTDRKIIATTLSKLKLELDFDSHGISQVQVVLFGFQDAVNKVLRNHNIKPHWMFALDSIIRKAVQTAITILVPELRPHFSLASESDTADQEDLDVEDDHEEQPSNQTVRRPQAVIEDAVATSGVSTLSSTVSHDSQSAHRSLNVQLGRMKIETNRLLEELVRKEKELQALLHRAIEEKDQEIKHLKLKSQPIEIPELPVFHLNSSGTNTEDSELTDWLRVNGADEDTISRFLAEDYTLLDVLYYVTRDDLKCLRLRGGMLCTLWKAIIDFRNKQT

[3] = target: T2, Cyclin-dependent kinase-like 5 (Homo sapiens) (UniProt O76039); test: Selectivity interaction (KinomeScan (DiscoverX)) EUB0000618a CDKL5; settings: at 10 µM
T2 sequence (whole entry): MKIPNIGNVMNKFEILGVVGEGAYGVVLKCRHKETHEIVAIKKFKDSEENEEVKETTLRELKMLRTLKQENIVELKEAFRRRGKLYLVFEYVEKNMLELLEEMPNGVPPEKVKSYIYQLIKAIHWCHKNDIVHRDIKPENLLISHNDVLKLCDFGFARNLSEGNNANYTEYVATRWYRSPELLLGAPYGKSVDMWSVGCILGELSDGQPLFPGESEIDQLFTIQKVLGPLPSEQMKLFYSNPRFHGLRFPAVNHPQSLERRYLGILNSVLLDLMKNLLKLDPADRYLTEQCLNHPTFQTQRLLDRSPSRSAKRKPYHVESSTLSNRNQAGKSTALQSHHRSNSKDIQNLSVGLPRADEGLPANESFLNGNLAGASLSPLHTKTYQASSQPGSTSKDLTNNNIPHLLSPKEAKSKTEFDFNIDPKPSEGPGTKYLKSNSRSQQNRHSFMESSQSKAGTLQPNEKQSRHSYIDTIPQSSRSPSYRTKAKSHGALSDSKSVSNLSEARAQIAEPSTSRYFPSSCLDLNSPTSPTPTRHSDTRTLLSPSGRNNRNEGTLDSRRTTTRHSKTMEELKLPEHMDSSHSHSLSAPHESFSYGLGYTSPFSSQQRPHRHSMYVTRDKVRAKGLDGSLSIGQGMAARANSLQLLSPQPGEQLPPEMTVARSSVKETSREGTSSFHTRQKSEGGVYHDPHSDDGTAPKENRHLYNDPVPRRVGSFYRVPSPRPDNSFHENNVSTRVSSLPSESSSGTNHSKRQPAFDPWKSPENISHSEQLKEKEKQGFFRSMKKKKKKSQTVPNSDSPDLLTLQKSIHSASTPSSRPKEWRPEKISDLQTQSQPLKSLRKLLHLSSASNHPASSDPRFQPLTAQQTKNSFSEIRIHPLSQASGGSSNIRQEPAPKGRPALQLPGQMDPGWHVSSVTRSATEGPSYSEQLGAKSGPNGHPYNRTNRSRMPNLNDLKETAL

[4] = target: Serine/threonine-protein kinase PAK 3 (Homo sapiens) (UniProt O75914); test: Selectivity interaction (KinomeScan (DiscoverX)) EUB0000045b PAK3
Serine/threonine-protein kinase PAK 3 (Homo sapiens), sequence (O75914 whole entry, looked up): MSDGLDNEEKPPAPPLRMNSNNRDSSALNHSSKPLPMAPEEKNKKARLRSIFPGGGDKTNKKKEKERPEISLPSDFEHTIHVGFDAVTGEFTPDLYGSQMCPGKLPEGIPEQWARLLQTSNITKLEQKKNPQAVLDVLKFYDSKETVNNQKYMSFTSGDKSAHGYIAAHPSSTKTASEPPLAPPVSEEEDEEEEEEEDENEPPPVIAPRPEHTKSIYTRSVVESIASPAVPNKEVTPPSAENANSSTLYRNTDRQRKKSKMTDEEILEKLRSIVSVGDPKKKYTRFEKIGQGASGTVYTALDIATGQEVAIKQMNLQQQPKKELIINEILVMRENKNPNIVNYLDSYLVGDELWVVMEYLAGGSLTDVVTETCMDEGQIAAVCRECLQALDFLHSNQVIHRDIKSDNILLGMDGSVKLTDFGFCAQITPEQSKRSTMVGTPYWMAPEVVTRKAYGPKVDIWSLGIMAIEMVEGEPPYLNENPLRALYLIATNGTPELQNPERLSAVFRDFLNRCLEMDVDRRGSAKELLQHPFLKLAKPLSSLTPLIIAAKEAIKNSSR

[5] = target: T3, Serine/threonine-protein kinase Chk1 (Homo sapiens) (UniProt O14757); test: Selectivity interaction (Kinase panel (KiNativ target engagement assay in Jurkat cells)) EUB0001635a CHEK1; assay type: cell-based; settings: at 1 µM
T3 sequence (whole entry): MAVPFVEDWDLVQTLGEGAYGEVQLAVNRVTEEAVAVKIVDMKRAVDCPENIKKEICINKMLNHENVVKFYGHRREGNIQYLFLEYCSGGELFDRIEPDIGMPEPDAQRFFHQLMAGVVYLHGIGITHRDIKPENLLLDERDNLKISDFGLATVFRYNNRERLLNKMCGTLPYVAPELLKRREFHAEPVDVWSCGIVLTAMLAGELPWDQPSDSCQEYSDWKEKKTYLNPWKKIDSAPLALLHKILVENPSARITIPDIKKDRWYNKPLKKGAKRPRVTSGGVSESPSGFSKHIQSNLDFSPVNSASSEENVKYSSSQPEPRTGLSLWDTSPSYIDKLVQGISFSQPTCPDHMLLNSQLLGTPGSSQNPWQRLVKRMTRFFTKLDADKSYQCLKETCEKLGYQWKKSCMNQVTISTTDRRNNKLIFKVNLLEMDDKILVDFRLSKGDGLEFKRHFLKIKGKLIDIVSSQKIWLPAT

Glycogen synthase kinase-3 beta, sequence (P49841 whole entry, looked up): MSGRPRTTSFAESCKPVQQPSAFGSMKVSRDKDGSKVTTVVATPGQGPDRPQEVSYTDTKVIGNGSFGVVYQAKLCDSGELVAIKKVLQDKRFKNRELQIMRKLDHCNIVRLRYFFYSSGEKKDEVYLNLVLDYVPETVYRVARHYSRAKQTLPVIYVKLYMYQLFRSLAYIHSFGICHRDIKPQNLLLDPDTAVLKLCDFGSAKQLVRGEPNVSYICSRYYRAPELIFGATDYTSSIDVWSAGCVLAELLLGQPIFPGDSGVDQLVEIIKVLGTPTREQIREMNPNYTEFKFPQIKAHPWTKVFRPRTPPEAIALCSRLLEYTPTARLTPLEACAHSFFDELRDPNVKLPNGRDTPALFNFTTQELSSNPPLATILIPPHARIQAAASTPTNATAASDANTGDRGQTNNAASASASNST

Compound `CCN(CC)CCCCNc1ncc2cc(-c3cc(OC)cc(OC)c3)c(NC(=O)NC(C)(C)C)nc2n1` has a % of control [1] of 100%.

`O[C@H]1CC[C@H](Nc2ncc3nc(Nc4c(F)cc(F)cc4F)n([C@H]4CCOC4)c3n2)CC1` gave a % of control [2] of 100% and a % of control [3] of 100%.

With `C=CC(=O)Nc1cc(-n2c(=O)ccc3cnc4ccc(-c5ccc(NS(C)(=O)=O)cc5)cc4c32)ccc1C` the % of control ([4]; at 1 µM) was 92% and the % of control ([4]; at 10 µM) was 100%.

In the case of `C=CC(=O)Nc1ccc(C(=O)Nc2[nH]nc3c2CN(C(=O)N[C@H](CN(C)C)c2ccccc2)C3(C)C)cc1`, the % of engagement ([5]; Selectivity number of off-targets 0.0, Selectivity number of targets 233.0, Source Knowledge https://www.sciencedirect.com/science/article/pii/S2451945619300674?via%3Dihub) is reported as 5.4% and the % of engagement [5] is reported as 16.4%.
